Data on two compounds can be found in patent publication US20090258840A1, “METHOD AND COMPOSITIONS FOR TREATING HEMATOLOGICAL MALIGNANCIES” (Gilead Sciences, Inc., priority 2006, published 2009).

Where two headings read alike, the source gives them in different places.

One data set concerns U937 (Monocytic). In words: Anti-proliferation in U937 cells. It is filed as cell-based, human. The note with it: U937 (Monocytic), 3 days incubation, read-out: Anti-Proliferation EC50.
The subject of data set [1] is PHA-blast (human T-cells). In words: Anti-proliferation in human PHA-lymphoblasts (BrdU/XTT). It is filed as cell-based. The note with it: PHA-blast (human T-cells), 3 days incubation, read-out: Anti-Proliferation EC50. On the technique in general: Formazan colour is commonly taken as a measure of viable cells.
The next data set concerns KG-1 (Myeloid). In words: Anti-proliferation in KG-1 cells. It is filed as cell-based, human. The following applies: KG-1 (Myeloid), 3 days incubation, read-out: Anti-Proliferation EC50.
Data set [2] deals with a variety of tumor cell lines. The following applies: in vitro cell culture; cited from earlier work.
In the next data set the test system is HL-60 (Myeloid). In words: Anti-proliferation in HL-60 cells. It is filed as cell-based, human. The note with it: HL-60 (Myeloid), 3 days incubation, read-out: Anti-Proliferation EC50.
A further data set has as its system Daudi (B-lymphoid). As to the kind of experiment: Anti-proliferation in Daudi cells. The note with it: 3 days incubation. It is filed as cell-based, human.
In a further data set the test system is Molt 4 (T-lymphoid). As to the kind of experiment: Anti-proliferation in Molt 4 cells. It is filed as cell-based, human. The note with it: Molt 4 (T-lymphoid), 3 days incubation, read-out: Anti-Proliferation EC50.
In a further data set the test system is CEM (T-lymphoid). In words: Anti-proliferation in CEM cells. The following applies: CEM (T-lymphoid), 3 days incubation, read-out: Anti-Proliferation EC50. It is filed as cell-based, human.
The subject of a further data set is PM-1 (T-lymphoid). As to the kind of experiment: Anti-proliferation in PM-1 cells. It is filed as cell-based, human. The following applies: PM-1 (T-lymphoid), 3 days incubation, read-out: Anti-Proliferation EC50.
Data set [3] has as its system PWM-blast (human B-cells). As to the kind of experiment: Anti-proliferation in human PWM-lymphoblasts (BrdU/XTT). It is filed as cell-based. The following applies: B-cell, 72 h, 3 days incubation.
For the next data set, the system named is Raji (B-lymphoid). In words: Anti-proliferation in Raji cells. It is filed as cell-based, human. The note with it: Homo sapiens, 72 h, 3 days incubation.
The test system of data set [4] is lymphoblasts and leukemia/lymphoma cell lines. As to the kind of experiment: Anti-proliferation, EC50 range over the cell panel. The note with it: range over a variety of lymphoblasts and leukemia/lymphoma cell lines. It is filed as cell-based. Here is the method: A variety of compounds that are used for treatment of hematologic malignancies were also tested, including a DNA polymerase inhibitor (ara-C), DNA polymerase/ribonucleotide reductase inhibitors (cladribine, clofarabine, fludarabine, gemcitabine), an adenosine deaminase inhibitor (deoxycoformycin), a DNA methylation inhibitor (decitabine), a […] (doxorubicin), and a mitosis inhibitor (vincristine). All compounds, with the exception of doxorubicin and vincristine, are nucleoside analogs; ara-C, gemcitabine, and decitabine are cytosine analogs and the rest are adenosine analogs. cpr-PMEDAP and PMEG can be considered adenosine and guanosine analogs, respectively. Compounds were tested using human and canine lymphoblasts (stimulated with a T-cell mitogen phytohaemagglutinin (PHA) or a B-cell mitogen pokeweed mitogen (PWM)), two T-lymphoid cell lines derived from patients with acute lymphocytic leukemia (CEM and Molt-4), two myeloid cell lines derived from patients with acute myelogenous leukemia (KG-1 and HL-60), two B-lymphoid cell lines derived from Burkitt's lymphoma (Daudi and Raji), a B-lymphoid cell line from non-Hodgkin's lymphoma (RL), a T-lymphoid cell line from cutaneous T-lymphoma (PM-1), and a monocytic cell line from histiocytic lymphoma (U937).
Lymphoblasts (150,000 cells per microtiter well) and leukemia/lymphoma cell lines (30,000 cells per well) were incubated with 5-fold serial dilutions of compounds for 3 days. BrdU assay was performed as follows: Lymphoblasts were incubated with 5-fold serial dilutions of compounds in microtiter plates (150,000 cells per well) for 3 days. On Day 3, cells were labeled with 10 μM BrdU for 3 hrs and the amount of BrdU incorporated into cellular DNA was quantified by Enzyme-Linked Immunosorbent Assay (ELISA). Alternatively, cells were incubated with 1 mg/mL XTT reagent (sodium 3,3′-[1[(phenylamino) carbonyl]-3,4-tetrazolium]-bis(4-methoxy-6-nitro) benzene sulfonic acid hydrate) and 1% PMS (phenazine methosulfate) for 2 hrs, and color change (mitochondrial dehydrogenase reduces yellow-colored XTT to orange-colored formazan salt) was quantified. […] Assays were repeated 2-20 times, until the standard error of the mean (SEM) became smaller than 50% of the mean value.

Data set [5] relates to PWM-blast (canine B-cells). In words: Anti-proliferation in canine PWM-lymphoblasts (BrdU/XTT). It is filed as cell-based. The following applies: Canis lupus familiaris, B-cell, 72 h, 3 days incubation.
For a further data set, the system named is RL (B-lymphoid). As to the kind of experiment: Anti-proliferation in RL cells. It is filed as cell-based. The following applies: Homo sapiens, 72 h, 3 days incubation.
Data set [6] concerns PHA-blast (canine T-cells). As to the kind of experiment: Anti-proliferation in canine PHA-lymphoblasts (BrdU/XTT). It is filed as cell-based. The following applies: Canis lupus familiaris, T-cell, 72 h, 3 days incubation.
The nature of the next data set: Hygroscopicity. It is filed as physicochemical.

Protocol for CEM (T-lymphoid): (§1) Compounds were tested using human and canine lymphoblasts (stimulated with a T-cell mitogen phytohaemagglutinin (PHA) or a B-cell mitogen pokeweed mitogen (PWM)), two T-lymphoid cell lines derived from patients with acute lymphocytic leukemia (CEM and Molt-4), two myeloid cell lines derived from patients with acute myelogenous leukemia (KG-1 and HL-60), two B-lymphoid cell lines derived from Burkitt's lymphoma (Daudi and Raji), a B-lymphoid cell line from non-Hodgkin's lymphoma (RL), a T-lymphoid cell line from cutaneous T-lymphoma (PM-1), and a monocytic cell line from histiocytic lymphoma (U937). Lymphoblasts (150,000 cells per microtiter well) and leukemia/lymphoma cell lines (30,000 cells per well) were incubated with 5-fold serial dilutions of compounds for 3 days.
Protocol for Daudi (B-lymphoid): as §1
Protocol for HL-60 (Myeloid): as §1
Protocol for KG-1 (Myeloid): as §1
Protocol for Molt 4 (T-lymphoid): as §1
Protocol for PM-1 (T-lymphoid): as §1
Protocol for RL (B-lymphoid): as §1
Protocol for Raji (B-lymphoid): as §1

Consider `Nc1nc(NC2CC2)c2ncn(CCOCP(=O)(O)O)c2n1` [GS-8369, 9-(2-phosphonylmethoxyethyl)-N^6-cyclopropyl-2,6-diaminopurine], for which the EC50 amounted to 4480 nM in the data set with U937 (Monocytic); 2350 nM in data set [1]; 1110 nM with KG-1 (Myeloid); 1610 nM in the data set with HL-60 (Myeloid); 1840 nM in the data set with Daudi (B-lymphoid); 1470 nM in the data set on Molt 4 (T-lymphoid). Moreover, the EC50 was determined as 2220 nM in the data set on CEM (T-lymphoid) and 6720 nM with PM-1 (T-lymphoid). In data set [2], the “antiproliferative and differentiation-inducing effect” value was “effective”.
With `CCOC(=O)C(C)NP(=O)(COCCn1cnc2c(NC3CC3)nc(N)nc21)NC(C)C(=O)OCC` (stereo not drawn) [Compound 1], the EC50 worked out at 394 nM in the data set with U937 (Monocytic) (Homo sapiens, U-937, 72 h); 135 nM in data set [1] (T-cell, 72 h); 1040 nM in the data set with KG-1 (Myeloid) (Homo sapiens, 72 h); 214 nM in the data set on HL-60 (Myeloid) (Homo sapiens, 72 h); 42 nM in data set [3]; 89 nM in the data set on Raji (B-lymphoid). Moreover, the EC50 with Daudi (B-lymphoid) (Homo sapiens, 72 h) is 27 nM; in data set [4], 27 to 1040 nM; in [5], 14 nM; in the data set with RL (B-lymphoid) it was 78 nM; in the data set with Molt 4 (T-lymphoid) (Homo sapiens, 72 h), 27.3 nM; in data set [6], 30 nM. In addition, the EC50 in the data set on CEM (T-lymphoid) (Homo sapiens, 72 h) was 156 nM; in the data set on PM-1 (T-lymphoid) (Homo sapiens, 72 h) it was 125 nM. Further, in “Hygroscopicity”, the hygroscopicity result was “hygroscopic”.
